Data taken from patent US20050239767A1, “Intermolecular SNAr of the heterocycle-activated nitro and fluoro groups-application in the synthesis of polyazamacrocyclic ligands” (priority 2003, published 2005).

test system: HIV-1; assay: NCI in vitro anti-HIV drug screening test (protection of T4 lymphocytes from HIV cytolysis, XTT readout); type: cell-based; details: T4 lymphocytes (CEM cell line) infected with HIV-1, 6 days, XTT formazan; numerical EC50/IC50/TI only in FIGS. 1-4
Experimental: The procedure used in the NCI's test for agents active against HIV is designed to detect agents acting at any stage of the virus reproductive cycle. The assay basically involves the killing of T4 lymphocytes by HIV. Small amounts of HIV are added to cells, and two cycles of virus reproduction are necessary to obtain the required cell killing. Agents that interact with virions, cells, or virus gene-products to interfere with vital activities will protect cells from cytolysis. All tests are done with at least one positive (e.g., AZT-treated) control done at the same time under identical conditions. The procedure is as follows:
Candidate agent was dissolved in dimethyl sulfoxide then diluted 1:100 in cell culture medium before preparing serial half-log10 dilutions. […]
Individual wells were analyzed spectrophotometrically to quantitate formazan production, and in addition were viewed microscopically for detection of viable cells and confirmation of protective activity. […]
The figures display a plot of the log10 of the sample's concentrations (as μg/mL or M) against the measured test values expressed as a percentage of the uninfected, untreated control values. […] The percent protection has been calculated from the data and is presented on the left side of the graph. […]

| Structure (SMILES) | activity against HIV |
| --- | --- |
| C[C@H]1Cn2c(nc3c(C4OCCO4)cccc32)-c2c(cccc2[N+](=O)[O-])O1 | confirmed active |

test system: not given; assay: not given; details: not given

| melting point [°C] | Structure (SMILES) |
| --- | --- |
| 142 to 143.5 | OCC1Cn2c(nc3ccccc32)-c2ccccc2O1 (centres unmarked) |
| 165.5 to 166.5 | Cc1ccc(S(=O)(=O)OCC2Cn3c(nc4ccccc43)-c3ccccc3O2)cc1 (centres unmarked) |
| 168 to 169 | Cc1ccc(S(=O)(=O)OCC2Cn3c(nc4c(C)cccc43)-c3cccc(Cl)c3O2)cc1 (centres unmarked) |
| 149 to 150 | CC(C)(C)C1Cn2c(nc3ccccc32)-c2ccccc2O1 (centres unmarked) |

More lines, now with the values behind:

| Structure (SMILES) | melting point [°C] |
| --- | --- |
| Cc1cccc2c1nc1n2CC(C(C)(C)C)Oc2c(Cl)cccc2-1 (centres unmarked) | 191 to 192 |
| Cc1cccc2c1nc1n2CC(CO)Oc2c(Cl)cccc2-1 (centres unmarked) | 186.5 to 188 |
| CC(C)(C)C1Cn2c(nc3c(C4OCCO4)cccc32)-c2ccccc2O1 (centres unmarked) | 200 to 201 |
